Experimental findings from ChEMBL document CHEMBL5291721, “A preclinical secondary pharmacology resource illuminates target-adverse drug reaction associations of marketed drugs” (Nat Commun, 2023) are described below.

One experiment deals with Vasopressin V2 receptor (Homo sapiens, UniProt P30518).
The next experiment has as its target T1, B2 bradykinin receptor (Homo sapiens, UniProt P30411).
T1 sequence (P30411 whole entry): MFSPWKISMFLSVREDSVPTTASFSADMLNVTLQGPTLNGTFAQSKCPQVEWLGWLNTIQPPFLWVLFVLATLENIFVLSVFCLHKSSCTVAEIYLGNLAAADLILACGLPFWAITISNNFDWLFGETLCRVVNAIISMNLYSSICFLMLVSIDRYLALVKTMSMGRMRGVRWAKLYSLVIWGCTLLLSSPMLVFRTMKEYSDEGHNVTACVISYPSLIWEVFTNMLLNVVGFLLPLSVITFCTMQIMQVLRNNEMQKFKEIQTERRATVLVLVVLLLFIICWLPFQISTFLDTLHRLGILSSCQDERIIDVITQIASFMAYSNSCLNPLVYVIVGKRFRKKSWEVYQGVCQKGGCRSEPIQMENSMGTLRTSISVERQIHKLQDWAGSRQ

Experiment [1] addresses T2, Muscarinic acetylcholine receptor M2 (Homo sapiens, UniProt P08172).
T2 sequence (P08172 whole entry): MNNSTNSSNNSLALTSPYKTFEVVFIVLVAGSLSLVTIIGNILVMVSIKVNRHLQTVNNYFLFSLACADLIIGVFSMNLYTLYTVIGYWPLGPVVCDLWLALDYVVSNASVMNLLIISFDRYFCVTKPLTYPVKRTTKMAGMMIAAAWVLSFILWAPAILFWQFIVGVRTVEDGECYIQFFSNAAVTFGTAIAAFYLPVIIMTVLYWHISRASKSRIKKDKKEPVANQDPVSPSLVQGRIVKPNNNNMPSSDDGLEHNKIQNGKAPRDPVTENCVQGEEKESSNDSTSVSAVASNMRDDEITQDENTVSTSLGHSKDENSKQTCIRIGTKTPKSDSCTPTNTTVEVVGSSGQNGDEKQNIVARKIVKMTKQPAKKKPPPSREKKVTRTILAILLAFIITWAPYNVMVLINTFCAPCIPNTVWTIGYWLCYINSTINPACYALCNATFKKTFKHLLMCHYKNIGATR
In kind it is functional, cell-based.

In another experiment the target is Histamine H2 receptor (Homo sapiens, UniProt P25021). It counts as functional, cell-based.
The target of experiment [2] is T3, 5-hydroxytryptamine receptor 2C (Homo sapiens, UniProt P28335).
T3 sequence (P28335 whole entry): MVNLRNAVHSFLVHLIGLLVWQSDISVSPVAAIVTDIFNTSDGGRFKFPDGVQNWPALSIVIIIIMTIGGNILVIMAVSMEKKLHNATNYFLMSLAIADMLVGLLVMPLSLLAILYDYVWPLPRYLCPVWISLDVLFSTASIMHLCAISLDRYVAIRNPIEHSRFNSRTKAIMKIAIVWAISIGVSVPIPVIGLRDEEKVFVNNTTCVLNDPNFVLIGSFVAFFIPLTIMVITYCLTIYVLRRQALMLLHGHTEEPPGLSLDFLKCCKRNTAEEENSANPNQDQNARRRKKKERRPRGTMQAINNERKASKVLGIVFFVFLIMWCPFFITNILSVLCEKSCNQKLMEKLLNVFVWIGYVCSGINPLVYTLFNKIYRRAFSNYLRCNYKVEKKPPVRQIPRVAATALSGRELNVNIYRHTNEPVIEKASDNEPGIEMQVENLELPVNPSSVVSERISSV

Experiment [3] concerns the target T4, 5-hydroxytryptamine receptor 3A (Homo sapiens, UniProt P46098).
T4 sequence (P46098 whole entry): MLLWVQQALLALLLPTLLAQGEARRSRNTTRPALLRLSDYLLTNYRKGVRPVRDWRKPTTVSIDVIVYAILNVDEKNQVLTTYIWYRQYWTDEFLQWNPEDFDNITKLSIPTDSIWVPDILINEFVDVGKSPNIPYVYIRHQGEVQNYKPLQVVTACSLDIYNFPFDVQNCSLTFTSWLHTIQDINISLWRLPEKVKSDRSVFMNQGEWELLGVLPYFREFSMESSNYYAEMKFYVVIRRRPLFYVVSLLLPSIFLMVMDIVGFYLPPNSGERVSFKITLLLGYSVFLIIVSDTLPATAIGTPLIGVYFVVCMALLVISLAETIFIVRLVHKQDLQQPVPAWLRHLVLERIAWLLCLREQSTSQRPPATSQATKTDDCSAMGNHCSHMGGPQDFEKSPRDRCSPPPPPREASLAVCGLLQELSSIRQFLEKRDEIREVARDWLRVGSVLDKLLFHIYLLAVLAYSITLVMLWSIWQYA
It counts as functional.

The target in experiment [4] is T5, Neuropeptide Y receptor type 1 (Homo sapiens, UniProt P25929).
T5 sequence (P25929 whole entry): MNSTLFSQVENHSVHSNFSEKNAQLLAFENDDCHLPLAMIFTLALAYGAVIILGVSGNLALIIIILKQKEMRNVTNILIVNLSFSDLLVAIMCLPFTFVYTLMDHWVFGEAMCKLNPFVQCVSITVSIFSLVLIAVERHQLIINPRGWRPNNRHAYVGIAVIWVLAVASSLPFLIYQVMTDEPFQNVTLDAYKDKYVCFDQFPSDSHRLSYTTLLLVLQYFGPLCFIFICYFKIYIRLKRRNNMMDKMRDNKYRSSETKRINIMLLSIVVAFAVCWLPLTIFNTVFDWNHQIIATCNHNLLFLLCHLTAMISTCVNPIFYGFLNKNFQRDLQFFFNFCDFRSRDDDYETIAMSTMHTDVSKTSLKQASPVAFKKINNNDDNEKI
The note with it: read-out: AC50.

In experiment [5] the target is Sodium-dependent noradrenaline transporter (Homo sapiens, UniProt P23975).
Experiment [6] has as its target T6, Amine oxidase [flavin-containing] A (Homo sapiens, UniProt P21397).
T6 sequence (P21397 whole entry): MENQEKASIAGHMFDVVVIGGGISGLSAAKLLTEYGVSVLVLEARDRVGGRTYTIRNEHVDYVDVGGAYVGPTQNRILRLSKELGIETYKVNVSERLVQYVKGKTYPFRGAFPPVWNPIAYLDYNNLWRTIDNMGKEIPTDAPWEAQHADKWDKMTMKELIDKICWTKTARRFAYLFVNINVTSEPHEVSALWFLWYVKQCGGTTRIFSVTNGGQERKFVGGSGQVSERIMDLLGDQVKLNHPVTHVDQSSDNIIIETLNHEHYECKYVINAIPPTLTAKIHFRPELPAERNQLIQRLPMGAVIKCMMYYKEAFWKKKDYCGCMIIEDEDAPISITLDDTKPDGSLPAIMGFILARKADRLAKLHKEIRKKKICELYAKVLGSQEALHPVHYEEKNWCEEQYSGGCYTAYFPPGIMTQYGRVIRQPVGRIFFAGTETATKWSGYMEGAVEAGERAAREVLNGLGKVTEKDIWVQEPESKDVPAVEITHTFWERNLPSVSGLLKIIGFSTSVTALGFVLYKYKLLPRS
In kind it is functional.

Where “and” joins values, the source holds several entries; their conditions need not be identical. Identical values can stand only once.
Further: assay procedure not described here.

Sequence of Histamine H2 receptor (P25021 whole entry): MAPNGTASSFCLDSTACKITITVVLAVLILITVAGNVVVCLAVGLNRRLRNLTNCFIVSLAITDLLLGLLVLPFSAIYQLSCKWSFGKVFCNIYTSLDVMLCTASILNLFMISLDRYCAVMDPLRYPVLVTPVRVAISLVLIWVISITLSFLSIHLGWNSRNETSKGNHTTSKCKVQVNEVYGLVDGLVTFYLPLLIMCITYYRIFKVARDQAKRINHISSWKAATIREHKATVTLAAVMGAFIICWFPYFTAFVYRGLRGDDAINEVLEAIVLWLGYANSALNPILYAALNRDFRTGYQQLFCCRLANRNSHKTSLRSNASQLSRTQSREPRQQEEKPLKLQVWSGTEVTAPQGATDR
Sequence of Vasopressin V2 receptor (P30518 whole entry): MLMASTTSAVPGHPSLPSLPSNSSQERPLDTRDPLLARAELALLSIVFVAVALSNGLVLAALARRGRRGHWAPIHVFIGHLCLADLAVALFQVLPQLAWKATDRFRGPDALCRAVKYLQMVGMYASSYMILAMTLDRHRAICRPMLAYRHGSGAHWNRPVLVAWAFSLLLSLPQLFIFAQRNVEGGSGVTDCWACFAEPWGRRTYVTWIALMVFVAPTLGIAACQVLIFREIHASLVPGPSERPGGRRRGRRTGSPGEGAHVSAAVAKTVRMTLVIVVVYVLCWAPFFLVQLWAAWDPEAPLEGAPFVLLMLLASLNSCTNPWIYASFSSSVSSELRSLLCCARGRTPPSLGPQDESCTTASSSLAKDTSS
Sequence of Sodium-dependent noradrenaline transporter (P23975 whole entry): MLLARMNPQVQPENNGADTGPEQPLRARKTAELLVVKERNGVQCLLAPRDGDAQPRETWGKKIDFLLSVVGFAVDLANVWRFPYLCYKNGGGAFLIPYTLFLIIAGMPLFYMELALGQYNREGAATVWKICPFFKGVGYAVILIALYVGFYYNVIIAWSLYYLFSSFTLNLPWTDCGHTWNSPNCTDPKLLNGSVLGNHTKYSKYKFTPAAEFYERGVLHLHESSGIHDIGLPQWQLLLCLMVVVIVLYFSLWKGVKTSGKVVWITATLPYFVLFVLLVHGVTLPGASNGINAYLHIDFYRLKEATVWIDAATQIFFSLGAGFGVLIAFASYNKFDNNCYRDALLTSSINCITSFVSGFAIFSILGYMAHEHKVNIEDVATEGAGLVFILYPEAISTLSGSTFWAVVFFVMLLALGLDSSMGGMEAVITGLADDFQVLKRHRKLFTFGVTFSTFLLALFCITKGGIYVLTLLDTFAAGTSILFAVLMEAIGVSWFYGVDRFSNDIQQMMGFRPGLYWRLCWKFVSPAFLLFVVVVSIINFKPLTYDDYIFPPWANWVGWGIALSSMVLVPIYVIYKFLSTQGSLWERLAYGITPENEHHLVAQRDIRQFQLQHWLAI

As for `C[C@]12CC[C@@H]3c4ccc(O)cc4C[C@@H](CCCCCCCCC[S+]([O-])CCCC(F)(F)C(F)(F)F)[C@H]3[C@@H]1CC[C@@H]2O` (some centres not stated) [FULVESTRANT], the AC50 (at Vasopressin V2 receptor; at B2 bradykinin receptor; in [1]; at Histamine H2 receptor; in experiment [2]; in [3]) was greater than 30 µM each time. Moreover, the AC50 in experiment [4], in experiment [5] and in experiment [6] was greater than 30 µM in each case.
Consider `CCC1(c2ccccc2)CCC(=O)NC1=O` (configuration not stated) [GLUTETHIMIDE], for which the AC50 at Vasopressin V2 receptor was greater than 10 µM; at B2 bradykinin receptor it was greater than 10 µM; in [1], greater than 10 µM; on Histamine H2 receptor it was greater than 10 µM; in experiment [2], greater than 30 µM; in [3], greater than 30 µM. Besides, the AC50 in experiment [4], in [5] and in experiment [6] was greater than 10 µM in each case.
As to `CC(C)NCC(O)c1ccc(O)c(O)c1` (configuration not stated) [ISOPROTERENOL], the AC50 on Vasopressin V2 receptor was greater than 30 µM; at B2 bradykinin receptor, greater than 30 µM; in [1] it was greater than 10 µM; on Histamine H2 receptor, greater than 10 µM; in [2] it was greater than 30 µM; in experiment [3] it was greater than 10 µM. Further, the values for the AC50 in experiment [4], in [5] and in experiment [6] were greater than 30 µM, greater than 30 µM and greater than 10 µM, respectively.
For `Oc1ccc2c(c1)CC[C@H](c1ccccc1)[C@@H]2c1ccc(OCCN2CCCC2)cc1` [LASOFOXIFENE], the AC50 on Vasopressin V2 receptor was 15 µM; at B2 bradykinin receptor, greater than 30 µM; in experiment [1], 15 µM; on Histamine H2 receptor, greater than 30 µM; in [2], 5.3 µM; in experiment [3], greater than 30 µM. For the same compound, the AC50 in experiment [4] is 25 µM; in [5], 2 µM; in experiment [6] it was greater than 30 µM.
As to `CC(C(=O)O)c1ccc(CC2CCCC2=O)cc1` (configuration not stated) [LOXOPROFEN], the AC50 (at Vasopressin V2 receptor; at B2 bradykinin receptor; in experiment [1]; on Histamine H2 receptor; in experiment [2]; in [3]) was greater than 30 µM throughout. Moreover, the AC50 in experiment [4], in [5] and in [6] was greater than 30 µM each time.
Turning to `C[C@H](Cc1ccc(O)c(O)c1)[C@@H](C)Cc1ccc(O)c(O)c1` [MASOPROCOL], the AC50 at Vasopressin V2 receptor was greater than 10 µM; on B2 bradykinin receptor, greater than 10 µM; in experiment [1], greater than 30 µM; at Histamine H2 receptor, greater than 10 µM; in [2], greater than 30 µM; in [3] it was greater than 30 µM. The AC50 in experiment [4] was greater than 10 µM; in experiment [5] it was 20.6 µM and 20 µM (2×); in experiment [6], greater than 30 µM.
For `OC1(c2ccc(Cl)cc2)c2ccccc2C2=NCCN21` (configuration not stated) [MAZINDOL], the AC50 was greater than 30 µM on Vasopressin V2 receptor; greater than 30 µM at B2 bradykinin receptor; greater than 30 µM in experiment [1]; greater than 10 µM on Histamine H2 receptor; greater than 30 µM in [2]; greater than 30 µM in [3]. The AC50 was greater than 30 µM in experiment [4], 0.027 µM in [5] and greater than 30 µM in experiment [6].
`CC12CC3CC(C)(C1)CC(N)(C3)C2` [MEMANTINE]: the AC50 was greater than 30 µM at Vasopressin V2 receptor; greater than 30 µM on B2 bradykinin receptor; greater than 10 µM in experiment [1]; greater than 10 µM on Histamine H2 receptor; greater than 30 µM in [2]; greater than 30 µM in [3]. Further, the AC50 in [4] is greater than 30 µM; in experiment [5] it was greater than 30 µM; in experiment [6], greater than 10 µM.
Take `CCOC(=O)C1=C(C)NC(C)=C(C(=O)OC)C1c1cccc([N+](=O)[O-])c1` (configuration not stated) [NITRENDIPINE]: the AC50 on Vasopressin V2 receptor was greater than 30 µM; at B2 bradykinin receptor, greater than 30 µM; in experiment [1] it was greater than 10 µM; at Histamine H2 receptor, greater than 10 µM; in experiment [2], greater than 30 µM; in experiment [3], greater than 30 µM. Besides, the half-maximal activity concentration (AC50) in experiment [4] is greater than 30 µM; in [5], greater than 30 µM; in experiment [6], greater than 10 µM.
As for `C#C[C@]1(OC(C)=O)CC[C@H]2[C@@H]3CCC4=C/C(=N/O)CC[C@@H]4[C@H]3CC[C@@]21CC` [NORGESTIMATE], the AC50 (on Vasopressin V2 receptor; on B2 bradykinin receptor; in experiment [1]; at Histamine H2 receptor; in experiment [2]; in experiment [3]) was greater than 30 µM each time. Besides, the AC50 is greater than 30 µM in [4], 28 µM in [5] and greater than 30 µM in [6].
Consider `[H]/N=C(/N)N/C(=N/[H])NCCc1ccccc1` [PHENFORMIN], for which the AC50 at Vasopressin V2 receptor is greater than 30 µM; at B2 bradykinin receptor, greater than 30 µM; in experiment [1], greater than 10 µM; at Histamine H2 receptor, greater than 30 µM; in experiment [2] it was greater than 30 µM; in experiment [3] it was greater than 30 µM. Besides, the values for the AC50 in experiment [4], in [5] and in [6] were greater than 30 µM, 18.3 µM and greater than 30 µM, respectively.
Take `CCCCC1C(=O)N(c2ccccc2)N(c2ccccc2)C1=O` [PHENYLBUTAZONE]: the AC50 at Vasopressin V2 receptor is greater than 30 µM; on B2 bradykinin receptor, greater than 30 µM; in experiment [1] it was greater than 10 µM; at Histamine H2 receptor, greater than 10 µM; in [2], greater than 30 µM; in experiment [3], greater than 30 µM. For the same compound, the values for the concentration at half-maximal activity (AC50) in [4], in experiment [5] and in experiment [6] were greater than 30 µM, greater than 30 µM and greater than 10 µM, respectively.
For `CC(N)C(O)c1ccccc1` (configuration not stated) [PHENYLPROPANOLAMINE], the AC50 at Vasopressin V2 receptor is greater than 30 µM; on B2 bradykinin receptor, greater than 30 µM; in experiment [1], greater than 10 µM; on Histamine H2 receptor, greater than 10 µM; in [2] it was greater than 30 µM; in experiment [3] it was greater than 10 µM. The figures for the AC50 in experiment [4], in [5] and in [6] were greater than 30 µM, greater than 30 µM and greater than 10 µM, respectively.
